Test results as given in PubChem BioAssay (NCI).
Several values for one entry are separate records, joined by “and”; a condition that tells them apart may be missing. Identical values can stand only once.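 Values below derive from 48-hour exposures of cells grown in 96-well plates, with endpoints linearly interpolated between the two concentrations bracketing the appropriate inhibition level. GI50 marks 50% less growth. TGI denotes the concentration required for complete inhibition of growth.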

What was measured:
Test in all cases: growth of human tumour cells (NCI), 48 h
[1] = system: HCT-116 colon
[2] = system: HOP-92 NSCLC
[3] = system: MALME-3M melanoma
[4] = system: MDA-MB-435
[5] = system: NCI-H522 lung
[6] = system: NCI/ADR-RES ovarian
[7] = system: OVCAR-5 ovarian
[8] = system: SNB-19 CNS
[9] = system: SR leukemia
[10] = system: UACC-257 melanoma

Compound | GI50 [1] | TGI [1] [µM] | GI50 [2] [µM] | TGI [2] | GI50 [3] | TGI [3] | GI50 [4] | TGI [4] | GI50 [5] | TGI [5] | GI50 [6] | TGI [6] [µM] | GI50 [7] | TGI [7] [µM] | GI50 [8] | TGI [8] | GI50 [9] | TGI [9] [µM] | GI50 [10] | TGI [10] [µM]
N#Cc1c(N)nn(C(=O)c2ccc(NC(=O)c3ccccn3)cc2)c1-c1ccc(Cl)cc1 | 3.32 µM | > 100 | 2.31 | 9.5 µM | 2.35 µM | 6.45 µM | 4.81 µM | > 100 µM | 4.52 µM | > 100 µM | 4.09 µM | > 100 | 8.65 µM | > 100 | 4.15 µM | 33.3 µM | 3.81 µM | > 100 | 4.34 µM | 68.3
Cc1ncc(C(=O)Nc2ccc(CN3CCN(C)CC3)c(C(F)(F)F)c2)cc1C#Cc1c(N)ncc2ccc(C#N)cc12 | 0.24 µM | 5.94 | 0.075 | 1.25 µM | 0.0167 µM | 0.157 µM | 0.163 µM | 3.31 µM | 1.61 µM | 21.7 µM | 5.06 µM | 16.8 | 1.25 µM | 10.9 | 6.71 µM | 15.6 µM | 1.42 µM | 12.2 | 0.473 µM | 10.5
CCOP1(=O)OCC2OC(n3cnc4c(N)ncnc43)C(O)C2O1 (configuration not stated) |  | > 100 |  | > 100 µM |  | > 100 µM |  | > 100 µM |  | > 100 µM |  | > 100 |  | > 100 |  | > 100 µM |  | > 100 |  | > 100
COC1CC(OC2OC(CO)C(O)C(O)C2O)/C(=C\C#N)C(O)C1OC (configuration not stated) |  | > 100 |  | > 100 µM |  | > 100 µM |  | > 100 µM |  | > 100 µM |  | > 100 |  | > 100 |  | > 100 µM |  | > 100 |  | > 100
CCc1cc(C(N)=O)ccc1-n1nc(C(C)C)c2c(-n3cnc(-c4cnn(C)c4)c3)ccnc21 | 0.554 µM | > 100 | 2.3 | 14.3 µM | 1.05 µM | > 31.3 µM | 0.719 µM | > 100 µM | 1.47 µM | > 100 µM | 32.8 µM | > 100 | 15.4 µM | > 100 | 3.3 µM | > 100 µM | 0.546 µM | > 100 | 2.9 µM | > 100
O=P(O)(O)OC1C(OP(=O)(O)O)C(OP(=O)(O)O)C(OP(=O)(O)O)C(OP(=O)(O)O)C1OP(=O)(O)O (configuration not stated) | > 2000 µM | > 2000 | > 100 | > 1880 µM | > 2000 µM | > 2000 µM | > 1770 µM | > 2000 µM | > 2000 µM | > 2000 µM | > 2000 µM | > 2000 | > 2000 µM | > 2000 | > 2000 µM | > 2000 µM | > 1780 µM | > 2000 | > 2000 µM | > 2000
COc1ccc(C(=O)/C=C/c2ccc(Cl)cc2)cc1S(N)(=O)=O | 1.36 µM | 2.7 | 2.14 | 5.78 µM | 5.89 µM | 20.2 µM | 4.34 µM | 15.6 µM | 1.93 µM | 4.51 µM | 3.64 µM | 24 | 3.08 µM | 13.8 | 3.1 µM | 10.3 µM | 0.865 µM | 6.86 | 12.2 µM | 24.9
Clc1ccc(Cl)c(N/N=C\c2c[nH]c3ccccc23)c1 | 14.8 µM | 27.9 | 1.13 | 8.37 µM | 20.3 µM | 39.8 µM | 12.2 µM | 28.1 µM | 1.78 µM | 14.8 µM | 15.6 µM | 34.8 | 17.3 µM | 36.9 | 13.2 µM | 29.4 µM | 4.14 µM | 32.2 | 15.2 µM | 28.9
CC(=O)OCC1OC(n2cc(F)c(=O)[nH]c2=O)C(OC(C)=O)C1OC(C)=O (configuration not stated) |  | 71.8 |  | > 55.8 µM |  | > 100 µM |  | > 100 µM |  | > 95.5 µM |  | > 100 |  | > 100 |  | > 100 µM |  | > 78.5 |  | > 100
COc1ccc(CN2CCc3c(Cl)nc(N)nc3C2=O)c(OC)c1 | 16.1 µM | 29.9 | 14.5 | 36 µM | 15.8 µM | 44.2 µM | 16.4 µM | 39.5 µM | 12.7 µM | 30.9 µM | 27.2 µM | 87 | 21.1 µM | 46.7 | 15.8 µM | 33.3 µM | 1.03 µM | 10.7 | 19.3 µM | 49.1
O=c1c(Cl)nsnc1Cl |  | 20.5 |  | 13 µM |  | 84.5 µM |  | 28.1 µM |  | 3.81 µM |  | > 100 |  | 38.6 |  | 49.1 µM |  | 4.43 |  | 26.8
COc1cc([C@@H]2c3cc4c(cc3[C@H](OC3OC5COC(c6ccccc6)OC5C(O)C3O)[C@H]3COC(=O)[C@H]23)OCO4)cc(OC)c1OC (some centres not stated) | 0.346 µM |  | 2.73 | 18.8 µM | 1.17 µM | 4.89 µM | 0.245 µM | 3.08 µM | 0.322 µM | 3.3 µM | 0.4 µM | 3 | 2.58 µM | 22.5 | 0.405 µM | 16 µM | 0.31 µM | > 100 | 1.07 µM | 3.69
[O-][n+]1onc2c3nn(-c4ccccc4)nc3ccc21 |  | > 100 |  | > 100 µM |  | > 100 µM |  | > 100 µM |  | > 100 µM |  | > 100 |  | > 100 |  | > 100 µM |  | > 75.1 |  | > 92.2
Nc1nc2nc3c(nc2c(=O)[nH]1)CN(c1ccc(C(=O)O)cc1)C3=O |  | > 100 |  | > 100 µM |  | > 100 µM |  | > 100 µM |  | > 100 µM |  | > 100 |  | > 100 |  | > 100 µM |  | > 100 |  | > 100
O=C1CCC/C=C\C[C@H]2C=C(Cl)C(=O)/C2=C/C[C@H](CCCCC(F)(F)F)OC(=O)CCC/C=C\C[C@H]2C=C(Cl)C(=O)/C2=C/C[C@H](CCCCC(F)(F)F)O1 | 0.157 µM | 0.43 | 0.199 | 0.754 µM | 0.21 µM | 0.694 µM | 0.147 µM | 0.307 µM | 0.166 µM | 0.384 µM | 1.57 µM | 7.14 | 0.34 µM | 2.08 | 0.353 µM | 1.67 µM | 0.198 µM | 0.748 | 0.685 µM | 2.3
CC[C@]1(O)C[C@@H]2CN(Cc3c([nH]c4ccccc34)[C@@](C(=O)OC)(c3cc4c(cc3OC)N(C)[C@H]3[C@@](O)(C(=O)OC)[C@H](OC(C)=O)[C@]5(CC)[C@@H]6C[C@@H]6CN6CC[C@]43[C@@H]65)C2)C1 | 0.0351 µM | > 4.38 | 0.0314 | > 4.38 µM | 2.6 µM | > 4.38 µM | 0.00612 µM | 0.0235 µM | 0.0105 µM | 0.0947 µM | > 4.38 µM | > 4.38 | 0.144 µM | > 4.38 | 0.106 µM | > 4.38 µM | 0.0174 µM | > 4.38 | > 4.38 µM | > 4.38
CC(C)Oc1cc(OCC(=O)O)cc(C(=O)N(CCC(N)=O)C(=O)Nc2ccc(C(=O)O)cc2OC(C)C)c1 | > 100 µM | > 100 | > 100 | > 100 µM | > 100 µM | > 100 µM | > 100 µM | > 100 µM | > 100 µM | > 100 µM | > 100 µM | > 100 | > 100 µM | > 100 | > 100 µM | > 100 µM | > 100 µM | > 100 | > 100 µM | > 100
CC(C)(O)Cn1c(=O)c(Oc2ccc(F)cc2F)cc2cnc(NC3CCOCC3)nc21 | > 25 µM | > 25 | 7.79 | > 25 µM | > 25 µM | > 25 µM | > 25 µM | > 25 µM | > 25 µM | > 25 µM | > 25 µM | > 25 | > 25 µM | > 25 | > 25 µM | > 25 µM | > 25 µM | > 25 | > 25 µM | > 25
Cc1cc(Cl)n2c(nc3ccccc32)c1C#N | 0.0393 µM | 1.4 | 0.494 | 1.62 µM | 0.858 µM | 2.63 µM | 0.327 µM | 1.6 µM | 0.235 µM | 1.22 µM | 0.847 µM | 8.74 | 0.83 µM | 10.8 | 2.44 µM | 15.6 µM | 0.348 µM | 24.2 | 0.727 µM | 4.8
O=C(Cn1ccnc1[N+](=O)[O-])NCCO |  | > 100 |  | > 100 µM |  | > 100 µM |  | > 100 µM |  | > 100 µM |  | > 100 |  | > 100 |  | > 100 µM |  | > 100 |  | > 100
C#Cc1cccc(NC(=O)Nc2ccccc2NC(=O)CCl)c1 | 24.5 µM | > 82.5 | 14.8 | 44 µM | 19.5 µM | 56.7 µM | 15 µM | 31.5 µM | 20.8 µM | 71.5 µM | 23.4 µM | 75.5 | 17.4 µM | 41.9 | 32 µM | > 82.5 µM | 23.8 µM | > 82.5 | 26.7 µM | > 82.5
CCc1nc(N)nc(N)c1-c1ccc(Cl)cc1 | 2.85 µM | > 100 | 17.4 | > 100 µM | 59.3 µM | > 100 µM and 99.6 µM | 4.6 µM | > 100 µM |  | > 100 µM | 5.93 µM | > 100 | 31.7 µM | > 100 | 7.75 µM | > 100 µM | 18.7 µM | > 100 | 10.3 µM | > 100
Cc1cc(O)c2c(c1)C[C@@H](O)C1=C2C(=O)c2c(O)ccc(OC3CC(O)C(OC4CC(OC5CCC(OC6CC(O)C(OC7CC(OC8CCC(O)C(C)O8)C(O)C(C)O7)C(C)O6)C(C)O5)C(O)C(C)O4)C(C)O3)c2C1=O (some centres not stated) | 0.38 µM and 0.281 µM |  | 0.3 | 0.316 µM and 0.684 µM | 1 µM and 0.197 µM |  | 0.198 µM and 0.204 µM | 0.182 µM and 0.344 µM and 0.376 µM | 0.0888 µM and 0.176 µM | 0.0534 µM and 0.217 µM and 0.415 µM | 3.01 µM and 1.8 µM |  | 1.88 µM and 0.666 µM |  | 1.41 µM and 1.24 µM | 0.335 µM and 2.88 µM and 2.67 µM | 0.033 µM and 0.0475 µM |  | 1.38 µM and 0.844 µM | 
COc1ccc(C(=O)CC2(O)C(=O)Nc3c(Cl)ccc(Cl)c32)cc1 (configuration not stated) | 0.72 µM | 23.9 | 1.22 | 18.4 µM | 8.96 µM | > 100 µM | 0.225 µM | 0.649 µM | 0.406 µM | 3.58 µM | 0.715 µM | 19.6 | 5.23 µM | > 100 | 4.68 µM | > 100 µM | 0.413 µM | 56.1 | 15.5 µM | > 100
C=C1C(=O)OC(CCCCCCCC)C1C(=O)O (configuration not stated) | 11.9 µM | 26.2 | 12.1 | 25.4 µM | 11.9 µM | 27.3 µM | 17.6 µM | 40.4 µM | 7.57 µM | 20.1 µM | 21.6 µM | 59.7 | 17 µM | 31.8 | 17 µM | 32.1 µM | 5.57 µM | 44.9 | 11.6 µM | 25
